Where two headings read alike, the source gives them in different places. Blank lines part the entries; values can stand above or below the molecule they belong to.
Experiments:
[1] = melanoma patients, cited from earlier work
AML = settings: Bross et al. 2001; cited from earlier work
[2] = molecular target: Melanom-assoziiertes Chondroitinsulfat Proteoglykan (MCSP) (human) (UniProt Q6UVK1); assay: flow cytometry, saturation binding on A2058 melanoma cells, half-maximal saturation concentration
[3] = molecular target: Melanom-assoziiertes Chondroitinsulfat Proteoglykan (MCSP) (human) (UniProt Q6UVK1); assay: ratio of KD values, flow cytometry on A2058 cells

Molecule: CN(C)/N=N/c1[nH]cnc1C(N)=O [Dacarbazin, Dimethyl-trizeno-imidazol-Carboxamid]
Ansprechraten ([1]; according to newer studies (Avril et al. 2004)): ~7% | Ansprechraten ([1]; as given in most studies): 10 - 20%

Molecule: GO: gegen CD33 gerichteter humanisierter Antikörper gekoppelt an Calicheamycin
Patienten, die ansprechen (AML): ~30% | mittlere rückfallfreie Überlebenszeit (AML): 6,8 Monate

Kd [2]: 23.3 nM
B1: scFv-Fragment MCSP (scFv)
scFv: MADYKDIVMTQSPASLAVSLGQRATISCRASESVDSYGNSFMHWYQQKPGQPPKLLIYLASNLESGVPARFSGSGSRTDFTLTIDPVEADDAATYYCQQNNEDPLTFGSGTKLETKRGGGGSGGGGSGGGGSGGGGSQVQLKQSGPELVKPGASVKISCKASGYAFSRSWMNWVKQRPGQGLEWIGRIYPGDGDTNYNGKFKGKATLTADKSSSTAYMQVSSLTSVDSAVYFCARGNTVVVPYTMDYWGQGTSVTVPSASGADHHHHHH

Kd [2]: 1.65 nM | fold improvement of affinity against the original scFv MCSP [3]: 14 fold
B2: scFv-Fragment MCSP HL (scFv)
scFv: MADYKQVKLQQSGPELVKPGASVKISCKASGYAFSRSWMNWVKQRPGQGLEWIGRIYPGDGDTNYNGKFKGKATLTADKSSSTAYMQVSSLTSVDSAVYFCARGNTVVVPYTMDYWGQGTTVTVSSGGGGSGGGGSGGGGSDIELTQSPASLAVSLGQRATISCRASESVDSYGNSFMHWYQQKPGQPPKLLIYLASNLESGVPARFSGSGSRTDFTLTIDPVEADDAATYYCQQNNEDPLTFGGGTKLELKRSASGADHHHHHH

Source: patent EP2261258A1, “MCSP-aligned scFv antibody fragments and use of same” (Schuler, Gerold, priority 2009, dated 2010)
